One experiment has as its target T1, hA1AR H78L^3.23 (Homo sapiens, UniProt P30542, H78L).
T1 sequence (P30542 1-326 H78L): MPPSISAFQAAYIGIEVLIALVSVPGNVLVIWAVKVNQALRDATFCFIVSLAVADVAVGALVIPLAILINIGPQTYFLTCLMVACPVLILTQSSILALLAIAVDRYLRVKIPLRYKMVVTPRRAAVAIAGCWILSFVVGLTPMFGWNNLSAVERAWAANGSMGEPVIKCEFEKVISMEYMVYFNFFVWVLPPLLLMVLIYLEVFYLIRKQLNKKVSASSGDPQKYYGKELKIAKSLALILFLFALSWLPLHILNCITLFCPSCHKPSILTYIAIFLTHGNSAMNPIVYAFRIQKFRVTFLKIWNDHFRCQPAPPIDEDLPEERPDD
Briefly: yeast liquid growth assay. It counts as cell-based. The procedure:
The plasmids, pDT-PGK_hA1AR, containing either wild type or mutated hA1AR were transformed into a MMY24 S. cerevisiae strain following the lithium acetate procedure.
In order to characterize the mutant hA1ARs, liquid growth assays in 96-well plates were performed to obtain concentration–growth curves as previously described. […] The overnight cultures were then diluted to 40,000 cells/mL (OD600 ≈ 0.02) in a selective medium without uracil, leucine, and histidine (YNB-ULH). For the determination of constitutive activity, 50 μL of yeast cells and 150 μL of YNB-ULH medium containing different concentrations of 3-AT and 0.8 IU/mL ADA were then added to each well. To obtain concentration–growth curves, 2 μL of various concentrations of ligands, 50 μL of yeast cells, and 150 μL of YNB-ULH medium containing 7 mM 3-AT and 0.8 IU/mL ADA were then added to each well. After incubation at 30 °C for 35 h in a Genios plate reader (TECAN, Zürich, Switzerland) with shaking for 1 min at 300 rpm every 10 min, the optical density was measured at a wavelength of 595 nm, which represented the level of yeast cell growth.
(§1) All experimental data were analyzed by GraphPad Prism 7.0 or 8.0 (GraphPad Software Inc., San Diego, CA, USA). Data from yeast liquid growth and [^35S]GTPγS binding assays were analyzed by non-linear regression using “log (agonist) vs. response (three parameters)” or “log (inhibitor) vs. response (three parameters)” to obtain potency (EC50), inhibitory potency (IC50), and efficacy (Emax or Imax) values. The radioligand displacement curves were obtained from a statistically preferred one-site or two-site binding model. pKi values were calculated from pIC50 values using the Cheng–Prusoff equation, where KD values were obtained from the homologous competition assays from this study and calculated by non-linear regression using “one site–homologous” [62].

The target of a further experiment is T2, hA1AR L134F^4.52 (Homo sapiens, UniProt P30542, L134F).
T2 sequence (P30542 1-326 L134F): T1 sequence (P30542 1-326 H78L) with L78H, L134F
Briefly: [3H]DPCPX radioligand displacement assay, CHO membranes. The class given is binding. Also on record: expressed in transfected cells; host or cells: CHO cells, transient; membranes. The note with it: fraction of high-affinity state; two-site model. The procedure: (§2) Transient transfection of CHO cells with wild type or mutated hA1AR plasmid constructs was performed using a polyethylenimine (PEI) method. Cells were seeded in 10-cm culture dishes to achieve 50–60% confluency 24 h prior to transfection. On the day of transfection, cells were transfected with a PEI: DNA ratio of 3:1 and a plasmid DNA amount of 10 μg/dish. Moreover, 24 h post-transfection, the medium was refreshed, and 48 h after transfection, cells were collected and membranes were prepared as previously described. Membranes were aliquoted in 250 or 100 μL and stored at −80 °C. Membrane protein concentrations were determined using the BCA method.
(§3) The displacement assays were performed as described previously. […] Note, the number of cell membranes (10–25 µg) was adjusted to obtain (approximately) a 1500 DPM assay window for each mutant. […] Incubations were terminated after 1 h at 25 °C by rapid vacuum filtration through GF/B filter plates (PerkinElmer, Groningen, Netherlands) using a Perkin Elmer Filtermate-harvester. Afterward, filter plates were washed ten times with ice-cold buffer (50 mM Tris-HCl, pH 7.4) and dried at 55 °C for 30 min. After the addition of 25 µL per well of the Microscint scintillation cocktail (PerkinElmer, Groningen, The Netherlands), the filter-bound radioactivity was measured by scintillation spectrometry in a Microbeta2® 2450 microplate counter (PerkinElmer).
as §1

The target of the next experiment is T3, hA1AR S246T^6.47 (Homo sapiens, UniProt P30542, S246T).
T3 sequence (P30542 1-326 S246T): T1 sequence (P30542 1-326 H78L) with L78H, S246T
Described as above. The class given is binding. Set-up: expressed in transfected cells; host or cells: CHO cells, transient; membranes. The note with it: fraction of high-affinity state; two-site model. The protocol: as §2, §3, §1

In a further experiment the target is T4, hA1AR W188C^5.46 (Homo sapiens, UniProt P30542, W188C).
T4 sequence (P30542 1-326 W188C): T1 sequence (P30542 1-326 H78L) with L78H, W188C
Described as above. The class given is binding. Also on record: expressed in transfected cells; host or cells: CHO cells, transient; membranes. The note with it: fraction of high-affinity state; two-site model. The procedure:
as §2, §3, §1

Positions count from the first letter of the chain named.

Regarding `OC[C@H]1O[C@@H](n2cnc3c(NC4CCCC4)ncnc32)[C@H](O)[C@@H]1O` [CPA, N^6-cyclopentyladenosine], at hA1AR H78L^3.23 (ratio over basal activity of wild type hA1AR, 7 mM 3-AT), the Emax was 4.15 ± 0.17. Besides, the agonist-induced receptor activation result at hA1AR H78L^3.23 (result in words) is “further activation could not be obtained”. Moreover, the “Fraction (High)” value at hA1AR L134F^4.52 worked out at 0.34 ± 0.03; on hA1AR S246T^6.47 it was 0.26 ± 0.03; on hA1AR W188C^5.46, 0.29 ± 0.01.

Values taken from PMC9229843, “Cancer-Related Somatic Mutations in Transmembrane Helices Alter Adenosine A1 Receptor Pharmacology” (Molecules, 2022).
